Experimental data from US12570666B2, “Furoindazole derivatives” (Bayer Aktiengesellschaft, priority 2019, dated 2026).
pIC50: −log10 of the molar value.

Molecular target: T1, human GPR84 receptor (Homo sapiens, UniProt Q9NQS5)
T1 construct: frozen aliquots prepared by acCELLerate; host or cells: CHO-K1
Assay: cAMP HTRF assay for identification of cellular GPR84 antagonists
Format: cell-based
Conditions: CHO-K1 cells stably expressing human GPR84; Forskolin + agonist 6-OAU (EC80); average or median values
Text: cAMP HTRF® Assay for Identification of Cellular GPR84 Antagonists
By using a Homogenous Time-Resolved Fluorescence (HTRF®) based assay (#62AM5PEJ, Cisbio, Condolet, France) the inhibition of the Gi-coupled GPR84 receptor can be detected. CHO-K1 cells stably expressing human GPR84 receptor (purchased from DiscoveRx, now Eurofins) were used and treated with Forskolin (F6886, Sigma, Germany) to stimulate membrane adenylyl cyclases and thereby unspecific cAMP formation. Activation of the Gi-coupled GPR84 by a natural or small molecule agonist (e.g. 6-n-octyl aminouracile, inhouse) results in inhibition of cellular cAMP formation which can be released again by antagonists to this receptor. Detection and quantification of cellular cAMP levels in this HTRF assay is achieved by interaction between a fluorescent cAMP tracer (cAMP-d2) and an Eu-cryptate labelled anti-cAMP antibody. Following excitation at 337 nm this pairing allows for the generation of a fluorescence resonance energy transfer (FRET) between the partners and results in FRET induced emissions at 665 nm and 620 nm, the latter representing background signal by Eu-cryptate labelled anti-cAMP antibody. Maximal signal is obtained in the absence of any cellular cAMP (no competition for the binding of the tracer to the antibody). Given the combination of the Gi coupling properties of GPR84 and the competitive nature of the detection system agonist treatment should result in an increase in the HTRF signal due to lowered cAMP levels. Any signal decrease in the presence of Forskolin, agonist and compound is indicative of antagonist mediated abrogation of GPR84 signalling.
For the assay, frozen aliquots of CHO-K1 cells expressing hGPR84 (prepared by acCELLerate, Hamburg, Germany) were thawed and a cell suspension (1.67E+06 cells/mL) in assay media (Ham's F12 Nutrient Mix, Thermo Fisher Scientific, Waltham, USA; 5% fetal calf serum, Biomol, Hamburg, Germany) containing cAMP-d2 (dilution 1:20, supplied with the kit #62AM5PEJ, Cisbio, Condolet, France) was prepared. After recovery of cells for 20 minutes at 37° C., 3 μL/well cell suspension including cAMP-d2 were added to a pre-dispensed assay plate (Greiner Bio-One, Kremsmuenster, Austria) containing 50 nl/well test compound in 100% DMSO or 100% DMSO as control. This was followed by a 30 minutes incubation step at room temperature. […] The reaction was stopped by addition of 3 μL/well lysis buffer containing cAMP Eu-Cryptate antibody (dilution 1:20) (both supplied with the kit #62AM5PEJ, Cisbio, Condolet, France). To enable complete lysis, plates were incubated for 60 minutes at room temperature before measurement in an HTRF reader, e.g. a PHERAstar (BMG Labtech, Ortenberg, Germany).
From the fluorescence emissions at 665 nm (FRET) and at 620 nm (background signal of Eu-cryptate) the ratio (emission at 665 nm divided by emission at 620 nm×10000) was calculated and the data were normalized (reaction without test compound, only 100% DMSO=0% inhibition; all other assay components except agonist=100% inhibition). For dose response testing on the same microtiter plate, compounds were tested at 11 different concentrations in the range of 20 μM to 0.07 nM (20 μM, 5.7 μM, 1.6 μM, 0.47 μM, 0.13 μM, 38 nM, 11 nM, 3.1 nM, 0.89 nM, 0.25 and 0.07 nM; dilution series prepared before the assay at the level of the 100-fold conc. stock solutions by serial 1:3.5 dilutions in 100% DMSO) in duplicate values for each concentration. IC50 values were calculated by 4-parameter fitting using a commercial software package (Genedata Screener, Basel, Switzerland).
Examples were tested in selected biological assays one or more times. […]

T1 sequence (Q9NQS5 whole entry): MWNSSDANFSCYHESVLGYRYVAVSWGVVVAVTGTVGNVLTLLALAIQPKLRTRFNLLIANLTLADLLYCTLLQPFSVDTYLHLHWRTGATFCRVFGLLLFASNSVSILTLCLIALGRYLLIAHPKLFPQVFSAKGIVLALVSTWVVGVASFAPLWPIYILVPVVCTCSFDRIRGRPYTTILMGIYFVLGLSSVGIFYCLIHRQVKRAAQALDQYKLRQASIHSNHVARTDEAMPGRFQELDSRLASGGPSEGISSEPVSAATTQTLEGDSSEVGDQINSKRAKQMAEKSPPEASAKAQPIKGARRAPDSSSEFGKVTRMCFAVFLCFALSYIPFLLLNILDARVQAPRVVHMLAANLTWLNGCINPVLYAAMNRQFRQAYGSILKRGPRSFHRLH

SMILES | pIC50
Cc1c(C(=O)NC[C@@H]2CCCO2)oc2c1-c1nn(C[C@H]3COCCO3)cc1C(C(F)(F)F)C2 (mixture of isomers) [Example 266, (4±)-2-{[(2S)-1,4-dioxan-2-yl]methyl}-8-methyl-N-{[(2S)-oxolan-2-yl]methyl}-4-(trifluoromethyl)-4,5-dihydro-2H-furo[2,3-g]indazole-7-carboxamide] | 6.22
Cc1c(C(=O)NC[C@@H]2CCCO2)oc2c1-c1nn(C(C)c3ccccn3)cc1CC2 (mixture of isomers) [Example 317, 8-methyl-N-{[(2S)-oxolan-2-yl]methyl}-2-[(1±)-1-(pyridin-2-yl)ethyl]-4,5-dihydro-2H-furo[2,3-g]indazole-7-carboxamide] | 6.24
Cc1c(C(=O)NCC2CCCO2)oc2c1-c1nn(Cc3ccccn3)cc1CC2 (racemic) [Example 3, 8-methyl-2-(pyridin-2-ylmethyl)-N-[(2R/S)-tetrahydrofuran-2-ylmethyl]-4,5-dihydro-2H-furo[2,3-g]indazole-7-carboxamide] | 6.62
Cc1c(C(=O)NCC2COc3ncccc3O2)oc2c1-c1nn(Cc3ccccn3)cc1CC2 (racemic) [Example 9, N-[(2R/S)-2,3-dihydro[1,4]dioxino[2,3-b]pyridin-2-ylmethyl]-8-methyl-2-(pyridin-2-ylmethyl)-4,5-dihydro-2H-furo[2,3-g]indazole-7-carboxamide] | 6.72
Cc1c(C(=O)N2CCCC2CN)oc2c1-c1nn(Cc3ccccn3)cc1CC2 (racemic) [Example 30, [(2R/S)-2-(aminomethyl)pyrrolidin-1-yl][8-methyl-2-(pyridin-2-ylmethyl)-4,5-dihydro-2H-furo[2,3-g]indazol-7-yl]methanone] | 5.45
Cc1c(C(=O)NCC2CCO2)oc2c1-c1nn(Cc3ccccn3)cc1CC2 (racemic) [Example 35, 8-methyl-N-[(2R/S)-oxetan-2-ylmethyl]-2-(pyridin-2-ylmethyl)-4,5-dihydro-2H-furo[2,3-g]indazole-7-carboxamide] | 6.33
Cc1c(C(=O)NCC2CN(C)CCO2)oc2c1-c1nn(Cc3ccccn3)cc1CC2 (racemic) [Example 38, 8-methyl-N-{[(2R/S)-4-methylmorpholin-2-yl]methyl}-2-(pyridin-2-ylmethyl)-4,5-dihydro-2H-furo[2,3-g]indazole-7-carboxamide] | 6.15
Cc1c(C(=O)NCC2CCC(=O)O2)oc2c1-c1nn(Cc3ccccn3)cc1CC2 (racemic) [Example 39, 8-methyl-N-{[(2R/S)-5-oxotetrahydrofuran-2-yl]methyl}-2-(pyridin-2-ylmethyl)-4,5-dihydro-2H-furo[2,3-g]indazole-7-carboxamide] | 6.02
Cc1c(C(=O)NCc2cc(C3CC3)on2)oc2c1-c1nn(CC3COc4ncccc4O3)cc1CC2 (racemic) [Example 50, N-[(5-cyclopropyl-1,2-oxazol-3-yl)methyl]-2-[(2R/S)-2,3-dihydro[1,4]dioxino[2,3-b]pyridin-2-ylmethyl]-8-methyl-4,5-dihydro-2H-furo[2,3-g]indazole-7-carboxamide] | 7.46
Cc1c(C(=O)NC[C@H]2CCCO2)oc2c1-c1nn(C[C@@H]3COc4ncccc4O3)cc1CC2 (racemic) [Example 51, 2-[(2R/S)-2,3-dihydro[1,4]dioxino[2,3-b]pyridin-2-ylmethyl]-8-methyl-N-[(2R/S)-tetrahydrofuran-2-ylmethyl]-4,5-dihydro-2H-furo[2,3-g]indazole-7-carboxamide] | 7.25
Cc1c(C(=O)NCCN2CCN(C)CC2)oc2c1-c1nn(CC3COc4ncccc4O3)cc1CC2 (racemic) [Example 54, 2-[(2R/S)-2,3-dihydro[1,4]dioxino[2,3-b]pyridin-2-ylmethyl]-8-methyl-N-[2-(4-methylpiperazin-1-yl)ethyl]-4,5-dihydro-2H-furo[2,3-g]indazole-7-carboxamide] | 6.26
Cc1c(C(=O)NCc2ccon2)oc2c1-c1nn(CC3COc4ncccc4O3)cc1CC2 (racemic) [Example 55, 2-[(2R/S)-2,3-dihydro[1,4]dioxino[2,3-b]pyridin-2-ylmethyl]-8-methyl-N-(1,2-oxazol-3-ylmethyl)-4,5-dihydro-2H-furo[2,3-g]indazole-7-carboxamide] | 7.31
Cc1cccc(Cn2cc3c(n2)-c2c(oc(C(=O)NCC4CCCO4)c2C)CC3)n1 (racemic) [Example 66, 8-methyl-2-[(6-methylpyridin-2-yl)methyl]-N-[(2R/S)-tetrahydrofuran-2-ylmethyl]-4,5-dihydro-2H-furo[2,3-g]indazole-7-carboxamide] | 6.80
Cc1cccc(Cn2cc3c(n2)-c2c(oc(C(=O)NCC4COc5ncccc5O4)c2C)CC3)n1 (racemic) [Example 70, N-[(2R/S)-2,3-dihydro[1,4]dioxino[2,3-b]pyridin-2-ylmethyl]-8-methyl-2-[(6-methylpyridin-2-yl)methyl]-4,5-dihydro-2H-furo[2,3-g]indazole-7-carboxamide] | 7.11
Cc1c(C(=O)NCC2CCC(C)(C)O2)oc2c1-c1nn(Cc3ccccn3)cc1CC2 (racemic) [Example 170] | 7.52
Cc1c(C(=O)NCC2CCCCO2)oc2c1-c1nn(Cc3ccccn3)cc1CC2 (racemic) [Example 172] | 4.92

SMILES | pIC50
Cc1c(C(=O)NCC2(C)CCCO2)oc2c1-c1nn(Cc3ccccn3)cc1CC2 (racemic) [Example 173] | 5.15
Cc1c(C(=O)NCC2CC(F)(F)CO2)oc2c1-c1nn(Cc3ccccn3)cc1CC2 (racemic) [Example 174] | 7.01
Cc1c(C(=O)NC[C@H]2OCC[C@H]2C)oc2c1-c1nn(Cc3ccccn3)cc1CC2 (racemic) [Example 177] | 5.59
Cc1c(C(=O)NCC2CC3(CC3)CO2)oc2c1-c1nn(Cc3ccccn3)cc1CC2 (racemic) [Example 178] | 7.04
Cc1c(C(=O)NCC2OCCC2(C)C)oc2c1-c1nn(Cc3ccccn3)cc1CC2 (racemic) [Example 179] | 5.19
Cc1c(C(=O)NCC2CCC3(COC3)O2)oc2c1-c1nn(Cc3ccccn3)cc1CC2 (racemic) [Example 180] | 6.68
Cc1c(C(=O)NCC2COCC(C)(C)O2)oc2c1-c1nn(Cc3ccccn3)cc1CC2 (racemic) [Example 181] | 6.99
Cc1c(C(=O)NCC2CCO2)oc2c1-c1nn(Cc3ccccn3)cc1CC2 (single isomer, unassigned) [Example 35-1] | 6.74
Cc1c(C(=O)NCC2CCO2)oc2c1-c1nn(Cc3ccccn3)cc1CC2 (single isomer, unassigned) [Example 35-2] | 6.11
Cc1c(C(=O)NCC2CN(C)CCO2)oc2c1-c1nn(Cc3ccccn3)cc1CC2 (single isomer, unassigned) [Example 38-1] | 5.85
Cc1c(C(=O)NCC2CN(C)CCO2)oc2c1-c1nn(Cc3ccccn3)cc1CC2 (single isomer, unassigned) [Example 38-2] | 5.45
Cc1c(C(=O)NCC2CCC(=O)O2)oc2c1-c1nn(Cc3ccccn3)cc1CC2 (single isomer, unassigned) [Example 39-1] | 6.17
Cc1c(C(=O)NCC2CCC(=O)O2)oc2c1-c1nn(Cc3ccccn3)cc1CC2 (single isomer, unassigned) [Example 39-2] | 5.15
Cc1c(C(=O)NCc2cc(C3CC3)on2)oc2c1-c1nn(CC3COc4ncccc4O3)cc1CC2 (single isomer, unassigned) [Example 50-1] | 6.96
Cc1c(C(=O)NCc2cc(C3CC3)on2)oc2c1-c1nn(CC3COc4ncccc4O3)cc1CC2 (single isomer, unassigned) [Example 50-2] | 7.77
Cc1c(C(=O)NCC2CCCO2)oc2c1-c1nn(CC3COc4ncccc4O3)cc1CC2 (single isomer, unassigned) [Example 52-1] | 7.02
